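Interpolation was linear, between the two tested concentrations surrounding the appropriate level; five concentrations were tested over 48 hours in 96-well plates. TGI denotes the concentration required for complete inhibition of growth.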
What was measured:
Test in all cases: DTP human tumour cell line panel, 48 h
A549 NSCLC = system: A549 NSCLC
TK-10 renal = system: TK-10 renal
NCI-H522 lung = system: NCI-H522 lung
HL-60(TB) leukemia = system: HL-60(TB) leukemia
SN12C renal = system: SN12C renal
HOP-62 NSCLC = system: HOP-62 NSCLC
SR leukemia = system: SR leukemia
SK-OV-3 ovarian = system: SK-OV-3 ovarian
KM12 colon = system: KM12 colon
SF-539 CNS = system: SF-539 CNS
A498 renal = system: A498 renal
LOX IMVI melanoma = system: LOX IMVI melanoma
M14 melanoma = system: M14 melanoma
OVCAR-8 ovarian = system: OVCAR-8 ovarian
NCI-H460 lung = system: NCI-H460 lung
U251 CNS = system: U251 CNS
SW-620 colon = system: SW-620 colon
HCT-15 colon = system: HCT-15 colon
NCI/ADR-RES ovarian = system: NCI/ADR-RES ovarian
HCT-116 colon = system: HCT-116 colon
SF-295 CNS = system: SF-295 CNS
SF-268 CNS = system: SF-268 CNS
UO-31 renal = system: UO-31 renal
BT-549 breast = system: BT-549 breast
HS 578T breast = system: HS 578T breast
SK-MEL-5 melanoma = system: SK-MEL-5 melanoma
SK-MEL-28 melanoma = system: SK-MEL-28 melanoma
CAKI-1 renal = system: CAKI-1 renal
ACHN renal = system: ACHN renal
OVCAR-5 ovarian = system: OVCAR-5 ovarian
HT29 colon = system: HT29 colon
UACC-62 melanoma = system: UACC-62 melanoma
CCRF-CEM leukemia = system: CCRF-CEM leukemia
IGROV1 ovarian = system: IGROV1 ovarian
SK-MEL-2 melanoma = system: SK-MEL-2 melanoma
T-47D breast = system: T-47D breast
K-562 leukemia = system: K-562 leukemia
DU-145 prostate = system: DU-145 prostate
HCC-2998 colon = system: HCC-2998 colon
MALME-3M melanoma = system: MALME-3M melanoma
PC-3 prostate = system: PC-3 prostate
COLO 205 colon = system: COLO 205 colon
NCI-H226 lung = system: NCI-H226 lung
MDA-N = system: MDA-N
MCF7 breast = system: MCF7 breast
OVCAR-3 ovarian = system: OVCAR-3 ovarian
EKVX NSCLC = system: EKVX NSCLC
MDA-MB-435 = system: MDA-MB-435
HOP-92 NSCLC = system: HOP-92 NSCLC
SNB-75 CNS = system: SNB-75 CNS
RXF 393 renal = system: RXF 393 renal
SNB-19 CNS = system: SNB-19 CNS
MDA-MB-231 breast = system: MDA-MB-231 breast
RPMI-8226 leukemia = system: RPMI-8226 leukemia
MOLT-4 leukemia = system: MOLT-4 leukemia
OVCAR-4 ovarian = system: OVCAR-4 ovarian
NCI-H23 lung = system: NCI-H23 lung
786-0 renal = system: 786-0 renal
UACC-257 melanoma = system: UACC-257 melanoma

SMILES: CCOC(=O)NC(C(F)(F)F)(C(F)(F)F)P(=O)(OCC(C)C)OCC(C)C
- TGI (A549 NSCLC): > 100 µM
- TGI (TK-10 renal): 65.8 µM
- TGI (NCI-H522 lung): 11.6 µM
- TGI (HL-60(TB) leukemia): 22.4 µM
- TGI (SN12C renal): 49 µM
- TGI (HOP-62 NSCLC): > 100 µM
- TGI (SR leukemia): > 100 µM
- TGI (SK-OV-3 ovarian): 66.9 µM
- TGI (KM12 colon): > 100 µM
- TGI (SF-539 CNS): 48.8 µM
- TGI (A498 renal): > 100 µM
- TGI (LOX IMVI melanoma): 20.6 µM
- TGI (M14 melanoma): 26.1 µM
- TGI (OVCAR-8 ovarian): 31.4 µM
- TGI (NCI-H460 lung): > 100 µM
- TGI (U251 CNS): > 100 µM
- TGI (SW-620 colon): 17.2 µM
- TGI (HCT-15 colon): 17.1 µM
- TGI (NCI/ADR-RES ovarian): 47 µM
- TGI (HCT-116 colon): 16.6 µM
- TGI (SF-295 CNS): > 100 µM
- TGI (SF-268 CNS): 57.3 µM
- TGI (UO-31 renal): 30.3 µM
- TGI (BT-549 breast): 29 µM
- TGI (HS 578T breast): 56.5 µM
- TGI (SK-MEL-5 melanoma): 24.9 µM
- TGI (SK-MEL-28 melanoma): 54.2 µM
- TGI (CAKI-1 renal): > 100 µM
- TGI (ACHN renal): 52.8 µM
- TGI (OVCAR-5 ovarian): 58.7 µM
- TGI (HT29 colon): 33.8 µM
- TGI (UACC-62 melanoma): 29.4 µM
- TGI (CCRF-CEM leukemia): > 100 µM
- TGI (IGROV1 ovarian): 51.5 µM
- TGI (SK-MEL-2 melanoma): 43 µM
- TGI (T-47D breast): > 100 µM
- TGI (K-562 leukemia): > 100 µM
- TGI (DU-145 prostate): > 100 µM
- TGI (HCC-2998 colon): > 100 µM
- TGI (MALME-3M melanoma): 60.7 µM
- TGI (PC-3 prostate): > 100 µM
- TGI (COLO 205 colon): 31 µM
- TGI (NCI-H226 lung): 32.6 µM
- TGI (MDA-N): 27.1 µM
- TGI (MCF7 breast): 21.1 µM
- TGI (OVCAR-3 ovarian): 64 µM
- TGI (EKVX NSCLC): 74.6 µM
- TGI (MDA-MB-435): > 100 µM
- TGI (HOP-92 NSCLC): 36.7 µM
- TGI (SNB-75 CNS): 97.1 µM
- TGI (RXF 393 renal): 24.5 µM
- TGI (SNB-19 CNS): > 100 µM
- TGI (MDA-MB-231 breast): 39 µM
- TGI (RPMI-8226 leukemia): > 100 µM

SMILES: CCNC(=O)OCC1C2=C(C(=O)C(C)=C(N)C2=O)N2CC3C(N3C)C12OC (configuration not stated)
- TGI (A549 NSCLC): > 100 µM
- TGI (TK-10 renal): > 100 µM
- TGI (NCI-H522 lung): 34.5 µM
- TGI (HL-60(TB) leukemia): > 44.1 µM
- TGI (SN12C renal): > 100 µM
- TGI (HOP-62 NSCLC): > 100 µM
- TGI (SR leukemia): > 32.6 µM
- TGI (SK-OV-3 ovarian): > 100 µM
- TGI (SF-539 CNS): > 85.1 µM
- TGI (MOLT-4 leukemia): > 76.3 µM
- TGI (A498 renal): 77 µM
- TGI (LOX IMVI melanoma): > 68.7 µM
- TGI (M14 melanoma): > 100 µM
- TGI (OVCAR-8 ovarian): > 100 µM
- TGI (NCI-H460 lung): 12.1 µM
- TGI (U251 CNS): > 100 µM
- TGI (SW-620 colon): 32 µM
- TGI (HCT-15 colon): 50.7 µM
- TGI (NCI/ADR-RES ovarian): > 100 µM
- TGI (HCT-116 colon): > 63.5 µM
- TGI (SF-295 CNS): > 100 µM
- TGI (SF-268 CNS): > 100 µM
- TGI (UO-31 renal): 64.3 µM
- TGI (BT-549 breast): 99.1 µM
- TGI (HS 578T breast): > 100 µM
- TGI (SK-MEL-5 melanoma): 29.5 µM
- TGI (OVCAR-4 ovarian): > 79 µM
- TGI (SK-MEL-28 melanoma): > 100 µM
- TGI (CAKI-1 renal): > 100 µM
- TGI (ACHN renal): > 61.9 µM
- TGI (OVCAR-5 ovarian): > 100 µM
- TGI (HT29 colon): > 100 µM
- TGI (UACC-62 melanoma): 33.4 µM
- TGI (CCRF-CEM leukemia): > 100 µM
- TGI (IGROV1 ovarian): 77 µM
- TGI (SK-MEL-2 melanoma): 71.2 µM
- TGI (T-47D breast): > 100 µM
- TGI (K-562 leukemia): > 100 µM
- TGI (DU-145 prostate): > 100 µM
- TGI (NCI-H23 lung): 14.2 µM
- TGI (HCC-2998 colon): 35.3 µM
- TGI (MALME-3M melanoma): 41.8 µM
- TGI (PC-3 prostate): > 100 µM
- TGI (786-0 renal): > 83 µM
- TGI (COLO 205 colon): > 100 µM
- TGI (NCI-H226 lung): > 100 µM
- TGI (MDA-N): > 100 µM
- TGI (MCF7 breast): > 100 µM
- TGI (OVCAR-3 ovarian): > 86.2 µM
- TGI (EKVX NSCLC): > 100 µM
- TGI (MDA-MB-435): > 100 µM
- TGI (HOP-92 NSCLC): > 100 µM
- TGI (SNB-75 CNS): > 100 µM
- TGI (RXF 393 renal): > 100 µM
- TGI (UACC-257 melanoma): > 100 µM
- TGI (SNB-19 CNS): > 100 µM
- TGI (MDA-MB-231 breast): > 100 µM
- TGI (RPMI-8226 leukemia): > 100 µM
